From ChEMBL document CHEMBL1144373, “NMDA-NR2B subtype selectivity of stereoisomeric 2-(1,2,3,4-tetrahydro-1-isoquinolyl)ethanol derivatives” (Bioorg Med Chem Lett, 2005)

What was measured:
[1] = target: Glutamate [NMDA] receptor; assay: Mean inhibitory concentration against [3H]ifenprodil binding to porcine N-methyl-D-aspartate (NMDA) glutamate receptor; n=3; type: protein-complex assay, Sus scrofa
[2] = target: Glutamate [NMDA] receptor; assay: Mean inhibitory concentration against [3H]MK-801 binding to porcine N-methyl-D-aspartate (NMDA) glutamate receptor; n=3; type: protein-complex assay, Sus scrofa
[3] = target: Glutamate [NMDA] receptor; assay: Mean inhibitory constant against porcine N-methyl-D-aspartate (NMDA) glutamate receptor; n=3; type: protein-complex assay, Sus scrofa
[4] = target: Glutamate NMDA receptor; Grin1/Grin2a (Rattus norvegicus, UniProt P35439+Q00959); assay: Mean inhibitory concentration against rat N-methyl-D-aspartate (NMDA) glutamate receptor 1a/2A expressed in Xenopus oocytes; type: cell-based, Oocyte
[5] = Mean inhibitory concentration against rat N-methyl-D-aspartate (NMDA) glutamate receptor 1a/2D expressed in Xenopus oocytes; type: cell-based; conditions: oocyte
[6] = target: Glutamate NMDA receptor; Grin1/Grin2c (Rattus norvegicus, UniProt P35439+Q00961); assay: Mean inhibitory concentration against rat N-methyl-D-aspartate (NMDA) glutamate receptor 1a/2C expressed in Xenopus oocytes; type: cell-based, Oocyte
[7] = target: Glutamate NMDA receptor; Grin1/Grin2b (Rattus norvegicus, UniProt P35439+Q00960); assay: Mean inhibitory concentration against rat N-methyl-D-aspartate (NMDA) glutamate receptor 1a/2B expressed in Xenopus oocytes; type: cell-based, Oocyte
[8] = target: Glutamate [NMDA] receptor (Homo sapiens) (UniProt Q05586+Q12879+Q13224+O15399+O60391+Q14957+Q8TCU5); assay: Specific binding of [3H]ifenprodil to N-methyl-D-aspartate (NMDA) glutamate receptor remaining in presence of 100 uM inhibitor; type: protein-complex assay; conditions: Sus scrofa
[9] = target: Glutamate [NMDA] receptor; assay: Mean inhibitory concentration against [3H]ifenprodil binding to porcine N-methyl-D-aspartate (NMDA) glutamate receptor; n=1; type: protein-complex assay, Sus scrofa
[10] = target: Glutamate [NMDA] receptor; assay: Mean inhibitory constant against porcine N-methyl-D-aspartate (NMDA) glutamate receptor; n=1; type: protein-complex assay, Sus scrofa

Chain of Glutamate NMDA receptor; Grin1/Grin2b (Q00960 whole entry, other chains not shown): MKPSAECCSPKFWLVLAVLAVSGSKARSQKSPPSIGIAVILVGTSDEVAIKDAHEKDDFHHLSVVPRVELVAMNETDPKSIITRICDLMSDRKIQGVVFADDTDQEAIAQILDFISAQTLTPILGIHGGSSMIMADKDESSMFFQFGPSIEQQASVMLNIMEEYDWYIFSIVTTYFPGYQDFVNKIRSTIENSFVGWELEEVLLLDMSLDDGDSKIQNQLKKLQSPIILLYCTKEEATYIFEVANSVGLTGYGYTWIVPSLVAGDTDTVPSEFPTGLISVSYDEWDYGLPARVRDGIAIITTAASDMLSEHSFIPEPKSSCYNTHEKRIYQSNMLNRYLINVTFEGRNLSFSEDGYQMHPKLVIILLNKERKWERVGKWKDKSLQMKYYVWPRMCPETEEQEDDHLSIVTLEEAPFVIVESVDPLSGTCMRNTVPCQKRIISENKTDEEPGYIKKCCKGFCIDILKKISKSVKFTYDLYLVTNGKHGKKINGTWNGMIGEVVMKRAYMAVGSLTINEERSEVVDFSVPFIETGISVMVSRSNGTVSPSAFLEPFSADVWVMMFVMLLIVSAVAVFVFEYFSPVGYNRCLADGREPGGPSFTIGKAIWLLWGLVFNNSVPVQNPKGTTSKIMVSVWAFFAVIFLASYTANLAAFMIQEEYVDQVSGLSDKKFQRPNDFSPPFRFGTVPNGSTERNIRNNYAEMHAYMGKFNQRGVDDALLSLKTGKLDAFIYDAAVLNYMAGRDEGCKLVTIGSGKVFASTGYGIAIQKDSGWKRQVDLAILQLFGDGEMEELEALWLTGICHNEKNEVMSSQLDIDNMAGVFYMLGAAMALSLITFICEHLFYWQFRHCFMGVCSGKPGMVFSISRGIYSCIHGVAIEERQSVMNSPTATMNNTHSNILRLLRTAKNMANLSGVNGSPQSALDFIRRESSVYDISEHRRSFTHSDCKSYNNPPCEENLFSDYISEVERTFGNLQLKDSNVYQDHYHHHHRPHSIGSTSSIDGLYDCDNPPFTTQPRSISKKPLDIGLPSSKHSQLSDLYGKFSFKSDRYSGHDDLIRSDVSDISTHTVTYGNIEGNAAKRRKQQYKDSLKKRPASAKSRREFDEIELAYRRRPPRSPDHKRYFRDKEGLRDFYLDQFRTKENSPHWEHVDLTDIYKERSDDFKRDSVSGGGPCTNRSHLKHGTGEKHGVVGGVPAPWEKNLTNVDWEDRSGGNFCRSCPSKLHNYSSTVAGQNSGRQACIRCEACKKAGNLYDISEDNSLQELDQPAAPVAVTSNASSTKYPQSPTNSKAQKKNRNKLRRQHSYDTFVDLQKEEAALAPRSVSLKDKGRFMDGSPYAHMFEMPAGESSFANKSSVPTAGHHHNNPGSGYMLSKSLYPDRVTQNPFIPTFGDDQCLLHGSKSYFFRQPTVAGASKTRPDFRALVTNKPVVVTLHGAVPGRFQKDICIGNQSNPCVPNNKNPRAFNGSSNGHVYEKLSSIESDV
Chain of Glutamate NMDA receptor; Grin1/Grin2a (Q00959 whole entry, other chains not shown): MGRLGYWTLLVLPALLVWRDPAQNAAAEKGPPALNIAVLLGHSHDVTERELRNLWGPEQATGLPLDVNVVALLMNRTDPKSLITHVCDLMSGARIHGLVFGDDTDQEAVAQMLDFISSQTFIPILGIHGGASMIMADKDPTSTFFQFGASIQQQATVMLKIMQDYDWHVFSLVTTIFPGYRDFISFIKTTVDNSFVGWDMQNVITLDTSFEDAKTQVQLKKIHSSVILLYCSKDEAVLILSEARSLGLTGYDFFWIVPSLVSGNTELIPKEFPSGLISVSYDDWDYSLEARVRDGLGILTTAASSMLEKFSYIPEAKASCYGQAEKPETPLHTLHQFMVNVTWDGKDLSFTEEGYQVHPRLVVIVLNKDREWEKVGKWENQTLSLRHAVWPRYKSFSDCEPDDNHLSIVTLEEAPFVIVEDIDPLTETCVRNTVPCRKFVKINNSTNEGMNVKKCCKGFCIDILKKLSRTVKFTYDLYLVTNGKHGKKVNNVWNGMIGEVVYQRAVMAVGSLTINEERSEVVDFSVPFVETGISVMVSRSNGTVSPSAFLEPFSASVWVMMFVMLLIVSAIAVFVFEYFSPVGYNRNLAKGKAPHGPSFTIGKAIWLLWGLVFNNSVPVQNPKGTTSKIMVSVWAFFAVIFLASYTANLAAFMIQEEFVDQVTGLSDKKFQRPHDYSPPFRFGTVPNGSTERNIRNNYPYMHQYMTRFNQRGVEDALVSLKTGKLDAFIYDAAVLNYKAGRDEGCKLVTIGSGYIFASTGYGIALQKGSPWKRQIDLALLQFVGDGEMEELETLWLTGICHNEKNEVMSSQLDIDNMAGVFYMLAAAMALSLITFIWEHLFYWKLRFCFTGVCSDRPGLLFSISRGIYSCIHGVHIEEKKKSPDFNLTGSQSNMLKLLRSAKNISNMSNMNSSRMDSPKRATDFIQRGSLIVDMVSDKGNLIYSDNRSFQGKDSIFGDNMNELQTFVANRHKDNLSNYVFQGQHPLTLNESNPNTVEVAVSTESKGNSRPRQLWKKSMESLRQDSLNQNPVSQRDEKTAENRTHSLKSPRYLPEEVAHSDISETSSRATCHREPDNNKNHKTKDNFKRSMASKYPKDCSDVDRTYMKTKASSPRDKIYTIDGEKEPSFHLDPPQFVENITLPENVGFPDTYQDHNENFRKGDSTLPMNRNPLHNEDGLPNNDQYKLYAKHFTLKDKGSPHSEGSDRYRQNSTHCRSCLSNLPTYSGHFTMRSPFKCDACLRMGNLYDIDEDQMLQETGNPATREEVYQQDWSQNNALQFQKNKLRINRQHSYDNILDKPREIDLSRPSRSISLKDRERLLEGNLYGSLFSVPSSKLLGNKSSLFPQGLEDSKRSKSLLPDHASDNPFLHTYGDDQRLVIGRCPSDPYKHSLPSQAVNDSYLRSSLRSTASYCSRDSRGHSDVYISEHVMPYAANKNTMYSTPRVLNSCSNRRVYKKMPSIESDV
Chain of Glutamate NMDA receptor; Grin1/Grin2c (Q00961 whole entry, other chains not shown): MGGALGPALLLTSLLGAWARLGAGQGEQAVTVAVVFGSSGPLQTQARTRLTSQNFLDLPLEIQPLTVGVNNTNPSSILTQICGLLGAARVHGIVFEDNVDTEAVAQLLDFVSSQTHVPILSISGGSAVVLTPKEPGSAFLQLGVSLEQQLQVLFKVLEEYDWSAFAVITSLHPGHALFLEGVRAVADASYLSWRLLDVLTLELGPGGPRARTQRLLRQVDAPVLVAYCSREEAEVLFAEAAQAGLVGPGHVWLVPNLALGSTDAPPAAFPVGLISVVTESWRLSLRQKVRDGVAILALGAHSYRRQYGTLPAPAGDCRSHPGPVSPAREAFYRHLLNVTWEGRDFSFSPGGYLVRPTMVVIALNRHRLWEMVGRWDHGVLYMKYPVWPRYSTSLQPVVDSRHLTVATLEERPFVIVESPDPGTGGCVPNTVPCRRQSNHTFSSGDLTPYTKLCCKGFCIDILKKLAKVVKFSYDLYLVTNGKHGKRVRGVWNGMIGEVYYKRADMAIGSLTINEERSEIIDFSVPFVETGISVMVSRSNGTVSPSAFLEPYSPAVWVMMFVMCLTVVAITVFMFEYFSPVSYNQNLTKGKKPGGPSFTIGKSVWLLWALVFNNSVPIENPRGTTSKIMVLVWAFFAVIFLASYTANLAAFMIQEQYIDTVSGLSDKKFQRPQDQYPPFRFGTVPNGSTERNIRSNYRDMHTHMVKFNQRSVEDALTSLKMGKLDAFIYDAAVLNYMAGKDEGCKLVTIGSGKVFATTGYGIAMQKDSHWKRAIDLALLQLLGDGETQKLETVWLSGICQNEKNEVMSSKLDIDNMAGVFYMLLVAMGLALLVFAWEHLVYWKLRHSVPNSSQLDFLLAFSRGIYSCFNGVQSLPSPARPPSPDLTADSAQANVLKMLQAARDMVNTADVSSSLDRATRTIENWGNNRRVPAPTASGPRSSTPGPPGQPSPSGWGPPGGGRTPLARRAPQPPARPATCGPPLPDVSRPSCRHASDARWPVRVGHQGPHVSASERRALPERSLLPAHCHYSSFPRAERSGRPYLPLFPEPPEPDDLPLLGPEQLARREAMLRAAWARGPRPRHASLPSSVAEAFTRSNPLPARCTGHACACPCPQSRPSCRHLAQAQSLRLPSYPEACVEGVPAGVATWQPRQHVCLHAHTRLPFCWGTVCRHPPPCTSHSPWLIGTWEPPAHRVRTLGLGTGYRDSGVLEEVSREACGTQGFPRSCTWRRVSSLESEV

SMILES	IC50 [1] [µM]	IC50 [2] [µM]	Ki [3] [µM]	IC50 [4] [µM]	IC50 [5] [µM]	IC50 [6] [µM]	IC50 [7] [µM]	Binding [8] [%]	IC50 [9] [µM]	Ki [10] [µM]
COc1cc2c(cc1OC)[C@@H](C[C@@H](O)c1ccc(Cl)cc1)N(C)CC2	100	56	0.007	–	–	–	–	–	–	–
COc1ccc([C@@H](O)C[C@@H]2NCCc3cc(OC)c(OC)cc32)cc1	14	29	–	–	–	–	–	–	–	–
COc1ccc([C@H](O)C[C@@H]2c3cc(OC)c(OC)cc3CCN2C)cc1	–	–	0.06	–	–	–	–	50	–	–
COc1ccc([C@H](O)C[C@H]2c3cc(OC)c(OC)cc3CCN2C)cc1	–	–	–	–	–	–	–	34	–	22
COc1cc2c(cc1OC)[C@H](C[C@@H](O)c1ccc(Cl)cc1)NCC2	95	34	2.6	–	–	–	–	–	–	–
COc1cc2c(cc1OC)[C@H](C[C@@H](O)c1ccc(Cl)cc1)N(C)CC2	52	45	2.7	–	–	–	–	–	–	–
COc1cc2c(cc1OC)[C@@H](C[C@H](O)c1ccc(Cl)cc1)NCC2	43	40	6.7	–	–	–	–	–	–	–
COc1ccc([C@H](O)C[C@H]2NCCc3cc(OC)c(OC)cc32)cc1	–	120	0.72	–	–	–	–	63	–	–

The next lines start with the values.

IC50 [1] [µM]	IC50 [2] [µM]	Ki [3] [µM]	IC50 [4] [µM]	IC50 [5] [µM]	IC50 [6] [µM]	IC50 [7] [µM]	Binding [8] [%]	IC50 [9] [µM]	Ki [10] [µM]	SMILES
0.24	4.6	2.7	107	341	155	3.16	–	–	–	COc1ccc([C@@H](O)C[C@H]2c3cc(OC)c(OC)cc3CCN2C)cc1
0.059	0.96	0.5	137	27.5	5.29	1.32	–	–	–	COc1cc2c(cc1OC)[C@H](C[C@H](O)c1ccc(Cl)cc1)N(C)CC2
–	110	5.8	–	–	–	–	–	243	–	COc1ccc([C@H](O)C[C@@H]2NCCc3cc(OC)c(OC)cc32)cc1
–	140	11	–	–	–	–	–	420	–	COc1ccc([C@@H](O)C[C@H]2NCCc3cc(OC)c(OC)cc32)cc1
1.1	7.4	0.92	104	48.4	24.9	10.5	–	–	–	COc1cc2c(cc1OC)[C@H](C[C@H](O)c1ccc(Cl)cc1)NCC2
24	31	0.11	–	–	–	–	–	–	–	COc1cc2c(cc1OC)[C@@H](C[C@H](O)c1ccc(Cl)cc1)N(C)CC2
–	37	0.26	–	–	–	–	–	290	–	COc1cc2c(cc1OC)[C@@H](C[C@@H](O)c1ccc(Cl)cc1)NCC2
–	120	0.38	–	–	–	–	87	–	–	COc1ccc([C@@H](O)C[C@@H]2c3cc(OC)c(OC)cc3CCN2C)cc1
